# Experimental data: US8791132B2, “Compounds and methods for treatment of hypertension” (Medivation Technologies, Inc., priority 2011, dated 2014)
# Like-named read-outs stand apart in the source and are kept apart here.
# Tests used:
# [1] = target: T1, rat adrenergic α1B receptor (Rattus norvegicus, UniProt P15823); assay: Radioligand binding, adrenergic α1B ([3H]Prazosin)
# T1 construct: rat adrenergic α1B receptor obtained from Wistar Rat liver; from tissue; host or cells: Wistar rat liver
# T1 sequence (P15823 1-515): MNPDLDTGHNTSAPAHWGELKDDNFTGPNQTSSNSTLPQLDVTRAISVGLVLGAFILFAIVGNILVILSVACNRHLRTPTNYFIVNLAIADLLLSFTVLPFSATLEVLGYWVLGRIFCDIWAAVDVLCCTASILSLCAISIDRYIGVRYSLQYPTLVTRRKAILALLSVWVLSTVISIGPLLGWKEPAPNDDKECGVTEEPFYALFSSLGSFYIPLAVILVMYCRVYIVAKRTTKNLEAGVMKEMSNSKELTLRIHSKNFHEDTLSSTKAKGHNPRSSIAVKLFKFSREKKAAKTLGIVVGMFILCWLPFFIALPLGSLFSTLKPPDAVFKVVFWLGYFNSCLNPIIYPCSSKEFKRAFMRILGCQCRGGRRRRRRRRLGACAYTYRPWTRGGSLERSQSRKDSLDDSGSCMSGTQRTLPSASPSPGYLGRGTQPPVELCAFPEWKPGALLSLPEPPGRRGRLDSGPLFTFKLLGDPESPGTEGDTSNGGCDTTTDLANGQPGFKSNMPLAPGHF
# Summary of the method: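 Incubation ran 60 min at 25 °C in Tris-HCl buffer (50 mM, pH 7.4, 0.5 mM EDTA) with Wistar rat liver α1B receptor. 10 μM phentolamine set non-specific binding.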
# [2] = target: T2, human recombinant adrenergic α2A receptor (Homo sapiens, UniProt P08913); assay: Radioligand binding, adrenergic α2A ([3H]MK-912); settings: for inhibition at 0.03 µM: read-out: Percentage inhibition of ligand binding, Adrenergic α2A (0.03 μM), compound at 0.03 μM
# T2 construct: expressed in transfected cells; host or cells: insect Sf9 cells
# T2 sequence (P08913 1-465): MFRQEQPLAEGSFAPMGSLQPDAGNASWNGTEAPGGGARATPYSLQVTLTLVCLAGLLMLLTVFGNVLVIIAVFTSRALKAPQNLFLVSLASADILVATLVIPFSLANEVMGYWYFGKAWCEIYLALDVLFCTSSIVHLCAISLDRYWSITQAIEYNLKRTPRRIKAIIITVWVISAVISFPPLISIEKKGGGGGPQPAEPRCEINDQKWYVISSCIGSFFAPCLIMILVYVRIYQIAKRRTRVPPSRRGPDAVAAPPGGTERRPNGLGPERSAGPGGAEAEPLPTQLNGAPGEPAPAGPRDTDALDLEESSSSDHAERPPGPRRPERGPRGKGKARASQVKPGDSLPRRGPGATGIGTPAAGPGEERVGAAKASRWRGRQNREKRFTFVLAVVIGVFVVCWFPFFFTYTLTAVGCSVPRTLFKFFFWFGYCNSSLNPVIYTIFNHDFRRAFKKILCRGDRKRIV
# Summary of the method: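 Sf9-expressed receptor was incubated with compound for 60 min at 25 °C in modified Tris-HCl buffer, pH 7.4. Nonspecific binding was taken as that remaining with 10 μM WB-4101.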
# [3] = target: T3, human recombinant adrenergic α1D receptor (Homo sapiens, UniProt P25100); assay: Radioligand binding, adrenergic α1D ([3H]Prazosin); settings: for Percentage inhibition of ligand binding, Adrenergic α1D: 0.1 μM compound, 0.1 µM
# T3 construct: expressed in transfected cells; host or cells: HEK-293
# T3 sequence (P25100 1-572): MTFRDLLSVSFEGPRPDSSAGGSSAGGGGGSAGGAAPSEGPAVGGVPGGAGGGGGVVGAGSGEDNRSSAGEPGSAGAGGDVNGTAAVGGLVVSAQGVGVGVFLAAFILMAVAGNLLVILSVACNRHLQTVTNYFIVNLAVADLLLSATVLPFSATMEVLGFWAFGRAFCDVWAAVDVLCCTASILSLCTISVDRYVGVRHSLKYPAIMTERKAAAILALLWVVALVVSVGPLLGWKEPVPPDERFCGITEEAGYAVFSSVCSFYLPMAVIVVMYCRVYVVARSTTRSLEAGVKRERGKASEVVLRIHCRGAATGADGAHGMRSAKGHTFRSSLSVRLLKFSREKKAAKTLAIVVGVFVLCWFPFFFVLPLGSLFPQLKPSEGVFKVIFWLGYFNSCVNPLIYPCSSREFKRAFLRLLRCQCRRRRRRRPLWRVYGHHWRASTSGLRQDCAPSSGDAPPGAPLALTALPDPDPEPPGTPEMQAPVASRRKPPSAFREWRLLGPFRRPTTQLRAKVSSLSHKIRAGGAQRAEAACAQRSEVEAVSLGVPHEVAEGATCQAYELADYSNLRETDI
# Experimental: Compounds were incubated with 0.6 nM [3H]Prazosin for 60 min at 25° C. Non-specific binding was estimated in the presence of 10 μM phentolamine. Receptor proteins were filtered and washed, the filters were then counted to determine [3H]Prazosin specifically bound. […] Biochemical assay results are presented as the percent inhibition of specific binding in Table B1.
# [4] = target: T4, human recombinant adrenergic α2B receptor (Homo sapiens, UniProt P18089); assay: Radioligand binding, adrenergic α2B ([3H]Rauwolscine)
# T4 construct: expressed in transfected cells; host or cells: CHO-K1
# T4 sequence (P18089 1-450): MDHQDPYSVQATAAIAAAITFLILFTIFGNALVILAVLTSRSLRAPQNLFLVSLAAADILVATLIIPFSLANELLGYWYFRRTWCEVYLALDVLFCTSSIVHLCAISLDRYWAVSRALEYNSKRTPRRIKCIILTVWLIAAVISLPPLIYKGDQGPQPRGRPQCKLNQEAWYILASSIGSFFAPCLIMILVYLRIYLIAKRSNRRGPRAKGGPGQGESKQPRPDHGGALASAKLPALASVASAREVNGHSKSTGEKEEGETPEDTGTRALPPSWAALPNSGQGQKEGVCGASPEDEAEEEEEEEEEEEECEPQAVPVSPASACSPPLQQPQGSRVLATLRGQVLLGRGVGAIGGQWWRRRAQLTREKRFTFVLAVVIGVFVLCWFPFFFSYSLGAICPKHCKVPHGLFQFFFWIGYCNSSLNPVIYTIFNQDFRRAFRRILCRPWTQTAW
# Summary of the method: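 Receptor expressed in CHO-K1 cells, assayed in 50 mM Tris-HCl pH 7.4 with 12.5 mM MgCl2, 1 mM EDTA and 0.2% BSA. Compounds were incubated with 2.5 nM [3H]Rauwolscine for 60 min at 25° C; 10 μM Prazosin defined non-specific binding. Filter counting gave percent inhibition of specific binding.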
# [5] = 0.1 μM compound, read-out: Percentage inhibition of ligand binding, Adrenergic α2A
# [6] = compound at 0.1 μM, [3H]Prazosin, repeat assays, each datapoint shown, read-out: Percentage inhibition of ligand binding, Adrenergic α1D
# [7] = read-out: Percentage inhibition of ligand binding, Adrenergic α1B (0.1 μM), compound at 0.1 μM, [3H]Prazosin, repeat datapoints each shown
# [8] = read-out: Percentage inhibition of ligand binding, Adrenergic α2B (0.03 μM), compound at 0.03 μM, [3H]Rauwolscine, repeat datapoints each shown
# [9] = read-out: Percentage inhibition of ligand binding, Adrenergic α2B (0.1 μM), compound at 0.1 μM, [3H]Rauwolscine, repeat datapoints each shown
# [10] = compound at 0.1 μM, [3H]Prazosin, repeat assays, each datapoint shown, 0.1 µM
# [11] = compound at 0.1 μM, [3H]Prazosin, repeat assays, each datapoint shown, read-out: Percentage inhibition of ligand binding, Adrenergic α1B
# [12] = compound at 0.03 μM, [3H]Rauwolscine, repeat assays, each datapoint shown, read-out: Percentage inhibition of ligand binding, Adrenergic α2B
# [13] = compound at 0.1 μM, [3H]Rauwolscine, repeat assays, each datapoint shown, read-out: Percentage inhibition of ligand binding, Adrenergic α2B
# [14] = read-out: Percentage inhibition of ligand binding, Adrenergic α2A (0.1 μM), compound at 0.1 μM, [3H]MK-912, repeat datapoints each shown
# [15] = [3H]MK-912, repeat datapoints each shown
# [16] = 0.1 μM compound, read-out: Percentage inhibition of ligand binding, Adrenergic α1B
# [17] = 0.03 μM compound, read-out: Percentage inhibition of ligand binding, Adrenergic α2B
compound,measurement,setting,value
"CC(Cn1c2c(c3ccccc31)CN(C)CC2)c1ccc(F)cc1 (single isomer, unassigned) [272b]","Percentage inhibition of ligand binding, Adrenergic α1B","[1]; 0.1 μM compound, 0.1 µM",30%
same,"Percentage inhibition of ligand binding, Adrenergic α2A","[2]; 0.1 μM compound, 0.1 µM",68%
same,"Percentage inhibition of ligand binding, Adrenergic α1D",[3],36%
"Cc1ccc2c(c1)c1c(n2CC(C)c2ccc(F)cc2)CCN(C)C1 (single isomer, unassigned) [288a]","Percentage inhibition of ligand binding, Adrenergic α1D",[3],88%
same,inhibition at 0.1 µM,"[4]; 0.1 μM compound, read-out: Percentage inhibition of ligand binding, Adrenergic α2B",104%
"Cc1ccc2c(c1)c1c(n2CC(C)c2ccc(F)cc2)CCN(C)C1 (single isomer, unassigned) [288b]","Percentage inhibition of ligand binding, Adrenergic α1B",[1]; 0.1 μM compound,39%
same,"Percentage inhibition of ligand binding, Adrenergic α2A",[2]; 0.1 μM compound,67%
same,"Percentage inhibition of ligand binding, Adrenergic α1D",[3],17%
"Cc1ccc2c(c1)c1c(n2CC(C)c2ccc(C)nc2)CCN(C)C1 (single isomer, unassigned) [289a]","Percentage inhibition of ligand binding, Adrenergic α1B","[1]; 0.1 μM compound, 0.1 µM",51%
same,inhibition at 0.1 µM,[2]; [5],60%
same,"Percentage inhibition of ligand binding, Adrenergic α1D",[3],57%
CCCCC(O)(Cn1c2c(c3cc(Cl)ccc31)CN(C)CC2)c1ccc(F)cc1 (centres unmarked) [33a],inhibition at 0.1 µM,[3]; [6],23%
CCC(O)(Cn1c2c(c3cc(Cl)ccc31)CN(C)CC2)c1ccc(F)cc1 (centres unmarked) [II-160],"Percentage inhibition of ligand binding, Adrenergic α1B (0.1 μM)","[1]; compound at 0.1 μM, [3H]Prazosin, repeat datapoints each shown, 0.1 µM",14%
same,inhibition at 0.1 µM,[1]; [7],7%
same,inhibition at 0.1 µM,"[3]; read-out: Percentage inhibition of ligand binding, Adrenergic α1D (0.1 μM), compound at 0.1 μM, [3H]Prazosin, repeat datapoints each shown",15%
same,inhibition at 0.03 µM,[4]; [8],39%
same,inhibition at 0.1 µM,[4]; [9],35%
Cc1ccc2c(c1)c1c(n2CC(C)(O)c2ccncc2)CCN(C)C1 (centres unmarked) [compound 2],"Percentage inhibition of ligand binding, Adrenergic α1B",[1]; [10],28%
same,inhibition at 0.1 µM,[1]; [11],27%
same,inhibition at 0.1 µM,[3]; [6],13%
same,inhibition at 0.03 µM,[4]; [12],75%
same,inhibition at 0.1 µM,[4]; [13],95%
Cc1ccc2c(c1)c1c(n2CC(O)c2ccc(F)cc2)CCN(C)C1 (centres unmarked) [compound 30],inhibition at 0.1 µM,[3]; [6],49%
same,inhibition at 0.1 µM,[4]; [13],91%
"Cc1cnc2c(c1)c1c(n2CCc2ccc(C)nc2)CCN2CCCC12 (centres unmarked) [compound 74, 10-methyl-7-(2-(6-methylpyridin-3-yl)ethyl)-2,3,5,6,7,11c-hexahydro-1H-pyrido[3′,2′:4,5]pyrrolo[2,3-g]indolizine]","Percentage inhibition of ligand binding, Adrenergic α2A","[2]; compound at 0.1 μM, [3H]MK-912, repeat assays, each datapoint shown, 0.1 µM",6%
same,inhibition at 0.1 µM,[3]; [6],57%
same,inhibition at 0.1 µM,[4]; [13],104%
"Cc1ccc2c(c1)c1c(n2C2=C(c3cn[nH]c3)CCC2)CCN(C)C1 [compound 77, 5-(2-(1H-pyrazol-4-yl)cyclopent-1-enyl)-2,8-dimethyl-2,3,4,5-tetrahydro-1H-pyrido[4,3-b]indole]","Percentage inhibition of ligand binding, Adrenergic α1B",[1]; [10],6%
same,inhibition at 0.1 µM,[1]; [11],5%
same,inhibition at 0.1 µM,[3]; [6],10%
same,inhibition at 0.03 µM,[4]; [12],84%
same,inhibition at 0.1 µM,[4]; [13],91%
C/C(=C\n1c2c(c3cc(C)cnc31)CN(C)CC2)c1ccc(C)nc1 [compound 78],"Percentage inhibition of ligand binding, Adrenergic α1B",[1]; [10],12%
same,inhibition at 0.1 µM,[1]; [11],11%
same,inhibition at 0.1 µM,[3]; [6],22%
same,inhibition at 0.03 µM,[4]; [12],67%
same,inhibition at 0.1 µM,[4]; [13],87%
Cc1ccc2c(c1)c1c(n2CC(C)(O)c2cnccc2C(=O)O)CCN(C)C1 (centres unmarked) [compound 179],inhibition at 0.1 µM,[1]; [7],6%
same,inhibition at 0.1 µM,[2]; [14],6%
same,inhibition at 0.03 µM,[4]; [8],8%
CN1CCc2c(c3c(Cl)cccc3n2CCc2ccccc2)C1 [compound 214],inhibition at 0.1 µM,[1]; [7],18%
same,Ki,[2],22.7 nM
same,"Percentage inhibition of ligand binding, Adrenergic α2A (0.1 μM)","[2]; compound at 0.1 μM, [3H]MK-912, repeat datapoints each shown, 0.1 µM",64%
same,inhibition at 0.03 µM,[2]; [15],37%
same,inhibition at 0.1 µM,[2]; [14],58%
same,Ki,[4]; read-out: Ki α2B,12.9 nM
same,inhibition at 0.03 µM,[4]; [8],48%
same,inhibition at 0.1 µM,[4]; [9],80%
CN1CCc2c(c3cc(Cl)ccc3n2CCc2ccc(F)cc2)C1 [compound 217],inhibition at 0.1 µM,[1]; [7],62%
same,inhibition at 0.1 µM,[2]; [14],74%
same,inhibition at 0.1 µM,[4]; [9],102%
CN1CCc2c(c3cc(F)ccc3n2CCc2ccc(F)cc2)C1 [compound 219],inhibition at 0.03 µM,[2]; [15],69%
same,inhibition at 0.03 µM,"[3]; read-out: Percentage inhibition of ligand binding, Adrenergic α1D (0.03 μM), compound at 0.03 μM, [3H]Prazosin, repeat datapoints each shown",3%
CN1CCc2c(c3cc(Cl)ccc3n2CC(O)(c2ccc(F)cc2)C2CC2)C1 (centres unmarked) [compound 223],inhibition at 0.1 µM,[1]; [7],21%
same,inhibition at 0.1 µM,[2]; [14],69%
same,inhibition at 0.03 µM,[4]; [8],47%
Cc1cnc2c(c1)c1c(n2CCc2ccc(F)cc2)CCN2CCCC12 (centres unmarked) [compound 336],inhibition at 0.1 µM,[1]; [16],98%
same,inhibition at 0.1 µM,[2]; [5],66%
same,inhibition at 0.03 µM,[4]; [17],104%
"CCCCCCC(=O)OC(Cn1c2c(c3cc(C)ccc31)CN(C)CC2)c1ccncc1 (centres unmarked) [compound 338, heptanoic acid 2-(2,8-dimethyl-1,2,3,4-tetrahydro-pyrido[4,3-b]indol-5-yl)-1-pyridin-4-yl-ethyl ester]",inhibition at 0.1 µM,[1]; [16],16%
same,inhibition at 0.1 µM,[2]; [5],60%
same,inhibition at 0.03 µM,[4]; [17],102%
